Read-outs that look alike come from different tables or passages of the source.
How the values were obtained:
[1] = type: physicochemical; details: for ThT Cat. / ThT-Fluorescence (categorical): ThT-active if fluorescence at least twice the control
Method: 4 µL of 1 mg/mL peptide fibrils solution is added to a 20 µL, 50 µM ThT–solution in PBS. The mixture is incubated for 15 min at RT to allow binding of ThT dye with β–sheet rich structures. For reference PBS (4 µL) was added instead of peptide fibril solution. The samples were placed in black UV Star® 384 microliter well–plates (Greiner bio–one). Fluorescence spectra were recorded on an Infinite® M1000 PRO microplate reader (Tecan) at λem = 488 nm upon excitation at λex = 440 nm with 10 nm bandwidths and multiple reads per well (3×3). Measurements were repeated in triplicates and averaged with standard deviation. […] Zeta-Potential. For the determination of the surface charge of aggregated peptides zeta-potential measurements were conducted with a Zetasizer Nano ZS, Malvern Instruments. Unless stated otherwise the peptides were dissolved from DMSO (10 mg/mL) in PBS (pH 7.4) to concentration of 1 mg/mL and incubated for 1d at RT. Just before the measurement the 60 µL of the peptides were further diluted in 600 µL KCl (aq, 1 mM) in a 1 mL disposable folded capillary cells (DTS–1060, Zetasizer Nano series, Malvern). The zeta potential of the peptides was derived from the electrophoretic mobility based on the Smoluchowski formula. All measurements were averaged over two individually performed experiments and conducted in triplicates for each sample. Aggregate analysis. […] Furthermore, fluorescence microscopy was conducted by staining 1 µL preformed fibrils (1 mg/mL) with 9 µL ThT (50 µM). Brightfield microscopy was performed simultaneously to evaluate aggregation also for non ThT-active fibrils. The measurements were performed on a Leica DMi8 microscope with 10x air objective and equipped with a Leica MC170 HD camera with a filter setting λem = 527/30 nm upon excitation at λex = 480/40 nm) and processed with the Leica LASX software. To quantify size and number of microscopic aggregation of particles > 10 µm^2 at least 3 independently measured images were analyzed via the 3D object counter analysis tool of ImageJ, v 1.53f51. Sum–frequency generation. The SFG experiments were carried out with a femtosecond Ti: Sapphire amplified laser system (Spitfire Ace, Spectra–Physics, 800 nm, 40 fs, 1 kHz) with 5 W output power. We used 2 W to pump an optical parametric amplifier (TOPAS, light conversion) with a non–collinear difference frequency generation stage to generate broadband IR pulses. Another 1 W of the laser output passed through an etalon to generate narrowband visible pulses (10 cm^-1). The incident angles of the visible and IR beams were 36° and 41° with respect to the surface normal, respectively. The visible (13 µJ) and IR (5 µJ) pulses were overlapped spatially and temporally at the sample position. Subsequently, the generated SFG pulse was guided into a spectrograph (Acton SP 300i, Princeton Instruments), and detected with an EMCCD (Newton, Andor Technology). To avoid IR absorption of water vapor, we purged N2 for the measurement. All spectra were collected in the ssp (denoting s-, s- and p-polarized SFG, visible and IR, respectively) polarization combination. The spectra were normalized to the non–resonant signal taken from z–cut quartz after subtracting a background spectrum.
1. Remarks on experimental parameters and bioinformatic descriptors

[2] = test system: HIV-1 infection of TZM-bl cells; assay: HIV-1 infectivity enhancement assay, β-galactosidase luminescence; type: cell-based; details: for Rel-EFC: infection relative to EF-C (QCKIKQIINMWQ = 1); for Log10 Infection Rel EFC: log10 of infection relative to EF-C; for Log Infectivity: Fig. S7 panel A (plotted against β-sheet content), Log10 infection relative to EF-C; for Log10 Infection Rel EF-C: HIV-1 infection of TZM-bl cells; for Abs. Inf.: β-galactosidase luminescence; for Infection (FigS19 A): mean of 3 replicates
[3] = TZM-bl cells, asymmetric std dev errors
[4] = Log10 of infection rate relative to EF-C, Figure 3A source data
[5] = infection rate relative to EF-C, log10, data of Figure 2D
[6] = infection rate relative to EF-C, log10, source data of Figure 2C
[7] = Log10 of infection relative to EF-C, all peptides of FigS16
[8] = absolute HIV-1 infection signal, TZM-bl cells
[9] = ThT fluorescence category, 1 if Rel. ThT >2

Substance	Tht category (> 2 to blank = +) ([1]; Fig S10 panel D)	ThT Cat, ([1]; ThT category, 1 if Rel. ThT >2)	ThT Cat. ([1]; ThT category, 1 if Rel. ThT >2)	ThT Cat. / ThT-Fluorescence (categorical) [1]	Rel-EFC ([2]; 1.3 µM peptide)	Log10 Infection Rel EFC ([2]; 1.3 µM peptide)	Log Infectivity [2, 3]	Log10 Infection Rel EF-C [2, 4]	Log10 Infection Rel EF-C [2, 5]	Log10 Infection Rel EF-C [2, 6]	Log10 of Rel to EFC (Feb2021) [2, 7]	Abs. Inf. [2, 8]	other results
KIKIKIQINMWQ	0 (ThT-inactive (N-Fold <2))	0 (ThT-inactive (N-Fold <2))	0 (ThT-inactive (N-Fold <2))	0 (ThT-inactive (N-Fold <2))	0,79	-0,1	-0.1048	-0.1	-0.1048	-0.1048	-0.1	20353.33333	
KFKFQFF	1 (ThT. Cat is 1, if Rel. ThT >2)	1 (ThT. Cat is 1, if Rel. ThT >2)		1 (ThT. Cat is 1, if Rel. ThT >2)	0,12	-0,91	-0.9142	-0.91	-0.9142	-0.9142	-0.91		ThT Cat. [1, 9]: 1 (ThT. Cat is 1, if Rel. ThT >2); Abs. Infection at 0.26 µM ([2]; peptide 0.26 µM, mean of n = 3, Figure 4A): 476.7; Infect 1 0.26 µM ([2]; peptide 0.26 µM, replicate 1, absolute infection signal, Figure 4A): 343.33; Infect 2 0.26 µM ([2]; peptide 0.26 µM, replicate 2, absolute infection signal, Figure 4A): 603.33; Infect 3 0.26 µM ([2]; peptide 0.26 µM, replicate 3, absolute infection signal, Figure 4A): 483.33; Abs. Infection at 1.3 µM ([2]; peptide 1.3 µM, mean of n = 3, Figure 4A): 2850; Infect 1 .3 µM ([2]; peptide 1.3 µM, replicate 1, absolute infection signal, Figure 4A): 3623.33; Infect 2 1.3µM ([2]; peptide 1.3 µM, replicate 2, absolute infection signal, Figure 4A): 2253.33; Infect 3 1.3 µM ([2]; peptide 1.3 µM, replicate 3, absolute infection signal, Figure 4A): 2673.33
MKIKIQINMWQ	1 (ThT. Cat is 1, if Rel. ThT >2)	1 (ThT. Cat is 1, if Rel. ThT >2)		1 (ThT. Cat is 1, if Rel. ThT >2)	0,42	-0,38	-0.378	-0.38	-0.378	-0.378	-0.38		ThT Cat. [1, 9]: 1 (ThT. Cat is 1, if Rel. ThT >2)
QCKFKQFF	1 (ThT. Cat is 1, if Rel. ThT >2)	1 (ThT. Cat is 1, if Rel. ThT >2)	1 (ThT. Cat is 1, if Rel. ThT >2)	1 (ThT. Cat is 1, if Rel. ThT >2)	0,01	-1,91	-1.907	-1.91	-1.907	-1.907			Tht category (> 2 to blank = +) ([1]; FigS12 panel A): 1 (ThT. Cat is 1, if Rel. ThT >2); ThT Cat, ([1]; FigS12 panel B): 1 (ThT. Cat is 1, if Rel. ThT >2); Abs. Inf. ([2]; absolute infection signal, HIV-1 on TZM-bl cells): 170; Log10 Inf. rel. to EF-C ([2]; log10 of HIV-1 infection of TZM-bl cells relative to EF-C (EF-C = 0)): -1.907
HHHHKIKIKIKIWWWW [TM4]													Tht rel to blank (42.1851851851852) ([1]; ThT fluorescence relative to blank, blank = 42.1851851851852): 4.025; Tht category (> 1.5 to blank = +) ([1]; category 1/0): 1 (ThT. Cat is 1, if Rel. ThT >2); Infection (FigS19 A) ([2]; 0.26 µM peptide): 15326.66667 RLU/s; Infection (FigS19 A) ([2]; 1.3 µM peptide): 20796.66667 RLU/s; Infection (FigS19 A) ([2]; 6.5 µM peptide): 12450 RLU/s; Absolute Infectivity / RLU /s (Feb2021) ([2]; Feb2021, figures match the 1.3 µM column): 20796.66667 RLU /s; n-fold to virus (Feb2021) ([2]; Feb2021, infectivity relative to virus only): 15.92; Log10 of Rel to EFC (Feb2021) ([2]; Feb2021, log10 of infectivity relative to EF-C): -0.4216; Rel-to EFC (Feb-2021) ([2]; Feb2021, n-fold infectivity relative to EF-C): 0.3788; Rel-to EFC ([2]; Fig S8 panels B, D, infectivity enhancement relative to EF-C): 0.3788; n-fold to virus ([2]; Fig S8 panels B, D, infectivity n-fold relative to virus alone): 15.92; infectivity ([2]; infectivity class (low / medium / high) of each library peptide, main list in c1-c6, same classes repeated in sub-lists of sequences containing the hydrophobicity/charge patterns P+,H0,P+,H0,P0,H0,P0, P+,H0,P0,H0,P0,H0,P0, P+,H0,P0,H0): medium; Log10 Inf. rel. to EF-C ([2]; log10 of HIV-1 infection of TZM-bl cells relative to EF-C, Fig S15 source data, asymmetric std dev errors): -0.4216
KIKIQIMQWN	0 (ThT-inactive (N-Fold <2))	0 (ThT-inactive (N-Fold <2))	0 (ThT-inactive (N-Fold <2))	0 (ThT-inactive (N-Fold <2))	0,72	-0,15	-0.1454	-0.15	-0.1454	-0.1454	-0.15	11623.33333	
KIKIQINMWQRGD	0 (ThT-inactive (N-Fold <2))	0 (ThT-inactive (N-Fold <2))	0 (ThT-inactive (N-Fold <2))	0 (ThT-inactive (N-Fold <2))	0,01	-1,92	-1.917	-1.92	-1.917	-1.917		196.7	Tht category (> 2 to blank = +) ([1]; FigS12 panel A): 0 (ThT-inactive (N-Fold <2)); ThT Cat, ([1]; FigS12 panel B): 0 (ThT-inactive (N-Fold <2)); Rel. ThT ([1]; n-fold ThT fluorescence vs control (PBS, 10% DMSO), 4 µL 1 mg/mL fibrils + 20 µL 50 µM ThT, 15 min RT, ex 440 / em 488 nm, triplicate): 1.5; Inf. rel. EF-C ([2]; HIV-1 infection relative to EF-C, Fig 23 plot, panels A and B, mean of 3 values): 0.008366; Inf. rel. EF-C ([2]; HIV-1 infection relative to EF-C, Fig 23 plot, single data point, replicate 1): 0.00461; Inf. rel. EF-C ([2]; HIV-1 infection relative to EF-C, Fig 23 plot, single data point, replicate 2): 0.009457; Inf. rel. EF-C ([2]; HIV-1 infection relative to EF-C, Fig 23 plot, single data point, replicate 3): 0.01103; Abs. Inf. / RLU s-1 ([2]; absolute infection rate, peptide 1.3 µM on cells, virus preincubated 10 min with fibrils, read 3 days post infection, mean of triplicate): 197 RLU s-1; Inf. rel. EF-C ([2]; n-fold infection vs virus only, relative to that of EF-C, 1.3 µM peptide): 0.01

From publication PMC10447463, “Data-mining unveils structure–property–activity correlation of viral infectivity enhancing self-assembling peptides” (Nature Communications, 2023)
